The values that follow come from PMC2851739 (General and comparative endocrinology, 2009).

Ends that are not written are not given here.

In this experiment the test system is AeaETHRs. Description: flash luminescence. The note with it: peptides with related sequences. The format is cell-based, Aedes aegypti.
Consider FMRFamide, for which the “activity when tested at 10 μM” value is “inactive”.

Consider “corazonin (QTFQYSRGWTN; ends and bridges not checked; UniProt Q26377 20-30, looked up)”, for which the “activity when tested at 10 μM” value was “inactive”.

For the substance “ghrelin (GSSFLSPEHQRVQQRKESKKPPAKLQPR; ends and bridges not checked; UniProt Q9UBU3 24-51, looked up)”, the “activity when tested at 10 μM” value is “inactive”.
